Results on eleven compounds are retold here after patent publication US7183302B2, “Iminothiazolidinones as inhibitors of HCV replication” (priority 2002, dated 2007).

pEC50: −log10 of the molar value. Read-outs that look alike come from different tables or passages of the source. A value given as a limit tells only on which side of the number the result lay.

The subject of data set [1] is HCV 1b-377-neo replicon cells (Huh-7). The data set is described as follows: Alamar blue conversion (cellular toxicity, CC50), wild-type replicon cells. It is filed as cell-based. A general note: The colour change of resazurin is a common sign of viable cells or microbes.
For data set [2], the system named is Compound 1-r replicon cells (HCV 377-neo). Kind of data set: FRET assay on selected Compound 1-r replicon cells. The conditions noted are these: initial test. It is filed as cell-based. Here is the method:
HCV 377-neo replicon cells were plated in 100-mm plates with ˜25% confluence after 24 hr seeding. Compound 1 was added at the final concentrations of 5, 10 and 20 μM in the presence of G418. Wild type replicon cells in the absence of the compound were used as a control. After 5–6 weeks, both wt replicon cells and selected cells were tested for their sensitivity to Compound 1. In addition, cell lines derived from individual colonies from different concentrations of selective Compound 1 were also isolated, expanded and tested. In the initial test, approximately 60-fold resistance, judged by the FRET assay, was observed between wt replicon cells and selected replicon cells (designated as Compound 1-r replicon cells).
In general terms: Replicon systems follow genome replication, usually without infectious particles.

In data set [3] the test system is Y > H replicon cells (Huh-7). Kind of data set: Alamar blue CC50 on Y > H replicon cells.
For data set [4], the system named is wild-type HCV 377-neo replicon in Huh-7 cells. Kind of data set: Colony formation under G418 selection, wild-type replicon RNA.
The test system of data set [5] is HCV replicon (HCV 1b-377-neo replicon cells). Kind of data set: HCV replicon cell line and FRET assay. Conditions: for pEC50: FRET assay. It is filed as cell-based.
For data set [6], the system named is wild-type Blast/Luciferase HCV replicon. The data set is classed as cell-based, HCV 1b.
Data set [7] concerns Y2065C Blast/Luciferase HCV replicon. The data set is classed as cell-based, HCV 1b.
Data set [8] relates to HCV replicon. Kind of data set: Western analysis of NS3 in replicon cells. It is filed as cell-based. How it is done:
EC50 values were also determined by Western analysis performed according to the instructions for Chemiluminescence Immunology Kit (Cat# NEL105) Amersham, Arlington Heights, Ill. using a Molecular Dynamics Storm 860 phosphoimager and associated software. Experiments were done in duplicate. The primary and secondary antibody dilutions were at 1 to 5,000. Antisera was generated by immunizing rabbits with purified NS3 protease made from an E. Coli expression vector encoding the first 181 amino acids of HCV 1a NS3 with subsequent boosts. Bleeds were tested weekly and boosts continued until a positive signal on a control western was seen. Secondary antibody was a BioRad (#170-6515) Goat anti-Rabbit IgG HRP Conjugate (Cat# 170-6515) BioRad, Hercules, Calif. The protein samples for western analysis were from the same wells used for the FRET assay and were prepared by the addition of an equal volume of 2×SDS-PAGE buffer to the FRET assay mixture, heating and loading on a 10% gel for SDS-PAGE. Interferon alpha (Cat# I-4276) Sigma, St. Louis, Mo. (IFN-α) was obtained and stored as recommended.

Data set [9] relates to HCV replicon. Kind of data set: HCV RNA detection by RT-PCR in replicon cells.
The mark [10] stands for this setting: Hepatitis C virus, HCV replicon cell line, read-out: Replicon Inhibition Range EC50.
The mark [11] stands for this setting: HCV replicon cell line, read-out: Replicon Inhibition Range EC50.

On to `C[C@H](NC(=O)OCc1ccccc1)C(=O)Nc1ccc(C2S/C(=N\c3cccc(F)c3)N(Cc3ccco3)C2=O)cc1` (stereo partly drawn) [Compound 1, (1S-(4-[2-(3-Fluorophenylimino)-3-furan-2-ylmethyl-4-oxo-thiazolidin-5-yl]-phenylcarbamoyl)ethyl)carbamic acid benzyl ester], for which the CC50 in data set [1] and in [3] was above 5 µM in each case. In addition, in data set [2], the “resistance between wt replicon cells and selected replicon cells” value is “approximately 60 fold”. Further, in [4] (Wild-type RNA transfected, 2 μM Compound 1, 3 weeks G418 selection), the Number of colonies is 3. The “reduction in colony number” value in data set [4] (wild-type replicon RNA, 2 μM Compound 1) is on record as 95%.
Take `O=C(Nc1ccc(C2S/C(=N\c3cccc(Oc4ccccc4)c3)N(Cc3ccco3)C2=O)cc1)[C@@H]1CCCN1C(=O)OCc1ccccc1` (stereo partly shown) [Compound 34]: the negative logarithm of the EC50 (pEC50) in data set [5] (setting [10]) is 6.00 to 7.00.
As to `C[C@H](NC(=O)OCc1ccccc1)C(=O)Nc1ccc(C2S/C(=N\c3ccc(C(F)(F)F)cc3)N(Cc3ccco3)C2=O)cc1` (stereo partly shown) [Compound 62], the negative-log EC50 (pEC50) in data set [5] (setting [11]) was 5.30 to 6.00.
As to `C[C@H](NC(=O)OCc1ccccc1)C(=O)Nc1ccc(C2S/C(=N\c3ccc(N4CCOCC4)cc3)N(Cc3ccccn3)C2=O)cc1` (stereo partly shown) [Compound 80], the negative-log EC50 (pEC50) in data set [5] (setting [11]) was 6.00 to 7.00.
In the case of `O=C(Nc1ccc(C2S/C(=N\c3ccc(N4CCOCC4)cc3)N(Cc3cccnc3)C2=O)cc1)[C@@H]1CCCN1C(=O)OCc1ccccc1` (stereo partly shown) [Compound 81], the pEC50 was 6.00 to 7.00 in data set [5] (setting [11]) and 7.96 to 8.05 in [5] (Hepatitis C virus, 72 h, read-out: EC50 in monotherapy).
Turning to `CC(C)(C)/N=C1\SC(c2ccc(NC(=O)[C@@H]3CCC(=O)N3C(=O)OCc3ccccc3)cc2)C(=O)N1Cc1ccccn1` (stereo partly shown) [Compound 90], the pEC50 in data set [5] (setting [10]) is 6.00 to 7.00.
Regarding `C[C@H](NC(=O)OCc1ccccc1)C(=O)Nc1ccc(C2S/C(=N\c3ccc(N4CCOCC4)cc3)N(c3ccccn3)C2=O)cc1` (stereo partly shown) [Compound 93], the pEC50 in data set [5] (setting [10]) was 6.00 to 7.00.
In the case of `O=C(Nc1ccc(C2S/C(=N\c3ccc(N4CCOCC4)cc3)N(Cc3cccnc3)C2=O)cc1)[C@@H]1CCCN1C(=O)OCc1ccccc1` (stereo partly shown) [Compound 94], the pEC50 in [5] (setting [10]) is above 7.00.
Turning to `C[C@H](NC(=O)Cc1ccccc1)C(=O)Nc1ccc(C2S/C(=N\c3cccc(F)c3)N(Cc3ccco3)C2=O)cc1` (stereo partly drawn) [Compound 124, (N-{4-[2-(3-fluorophenylimino)-3-furan-2-ylmethyl-4-oxo-thiazolidin-5-yl]phenyl}-2S-(phenylacetylamino))propionamide], the CC50 in data set [1] and in data set [3] was above 5 µM in each case. In addition, the “replication of the wild-type replicon” value in data set [6] (0.5 μM Compound 124) is listed as “completely inhibited”. Moreover, the “rlu 48 h” value in data set [6] (wt clone, 0.5 μM 124, 48 h) is 3237 rlu; in data set [7] (Y > C clone, 0.5 μM 124, 48 h) it was 7186 rlu. For the same compound, the “rlu 72 h” value is reported as 3184 rlu in data set [6] (wt clone, 0.5 μM 124, 72 h) and 9696 rlu in [7] (Y > C clone, 0.5 μM 124, 72 h). For the same compound, the decrease in replication in data set [7] (Y2065C replicon, 0.5 μM Compound 124) was 10–15%.
`O=C(Nc1ccc(C2S/C(=N\c3cccc(F)c3)N(Cc3ccco3)C2=O)cc1)[C@@H]1CCCN1C(=O)Cc1ccccc1` (stereo partly shown) [Compound 127]: in data set [5] (setting [10]), the negative-log EC50 (pEC50) is above 7.00.
Regarding IFN-α, the EC50 is 2.9 units of IFN-α per milliliter in [5] (FRET), 1.9 units of IFN-α per milliliter in the data set with HCV replicon [8] and 5.3 units of IFN-α per milliliter in the data set on HCV replicon [9].

As a reminder, the CC50 is the concentration that lowers cell viability or growth by half. A higher CC50 goes with better tolerance by the cells. What is called pEC50 is the negative decadic logarithm of the EC50, by convention in mol/L.
